Converted amounts (≈) assume the structure as drawn. Bridge positions count the residues as written; N and C are the ends. Square brackets hold non-standard residues; d marks the D form. Ends that are not written are not given here. Peptide text beside a SMILES is read from it. Nle = CCCC[C@H](N)C(=O)O; Orn = NCCC[C@H](N)C(=O)O
Assays:
Assay type in all cases: cell-based
S. epidermis = experiment: killing of bacteria at fixed peptide concentration, S. epidermis (Example 12); details: peptide 25 μg/ml
Method: (§1) In this example, the peptides according to the invention were used to study the effect on the killing of different bacteria.
(§2) The peptides were used at a concentration of 25 μg/ml.

E. faecalis = experiment: killing of bacteria at fixed peptide concentration, E. faecalis (Example 12); details: peptide 25 μg/ml
Method: as §1, §2

C. albicans (ATCC64549) = details: for MIC: ATCC64549; for MMC99%: C. albicans, tested at 1, 10, 25 and 100 μg/ml of peptide
Method: (§3) In the examples, the minimal microbicidal concentrations (MMC) and minimal inhibitory concentrations (MIC) were determined as follows, unless otherwise specified in the examples. Bacterial or fungal strains were cultured in BHI medium over night at 37° C. A volume of the culture was transferred to a new tube with BHI and incubated for two more hours. Thereafter the cells were spun down and the pellet was suspended in BHI medium diluted 1/100 (1% BHI). The concentration of bacterial or fungal cells was spectrophotometrically determined at 650 nm. The microbial concentrations were also determined by viable counts. Peptides serially diluted in 1% BHI by twofold or tenfold steps were added in triplicate to the wells of a microtiterplate (200 μl per well). The bacterial or fungal cell solutions were added in 10 μl volumes to give a final concentration of approximately 1-5×10^5 cells per ml in the well. The microplate was incubated at 37° C. in a humid chamber for two hours. Thereafter 5 μl was taken from each well and added as a drop onto a blood agar plate and incubated over night at 37° C. The microplate was incubated for another 20 hours at 37° C. and thereafter analysed spectrophotometrically at 650 nm in a microplate reader (Emax, Molecular Devices, USA). The concentration of peptide causing a 99% reduction of the inoculum after 2 hours of incubation was defined as the MMC99%. The MIC value was defined as the concentration giving no increase in the absorbance value above the background level after 20 hours of incubation.
(§4) C. albicans (ATCC64549) and E. coli O6, respectively, were incubated with the different peptides. The experiments were performed with 1, 10, 25 and 100 μg/ml of peptide.

E. coli O6 = details: for MMC99%: E. coli O6, tested at 1, 10, 25 and 100 μg/ml of peptide; for MIC: O6
Method: as §3, §4

P. aeruginosa = experiment: killing of bacteria at fixed peptide concentration, P. aeruginosa (Example 12); details: peptide 25 μg/ml
Method: as §1, §2

K. pneumoniae = experiment: killing of bacteria at fixed peptide concentration, K. pneumoniae (Example 12); details: peptide 25 μg/ml
Method: as §1, §2

[1] = test system: C. albicans yeast cells (ATCC64549); experiment: killing and growth inhibition of C. albicans at pH 4.5 (Example 11); set-up: key to C. albicans inhibition (OD650): + = no increase in OD650 is seen; − = OD650 continues to increase; details: pH 4.5, 1% BHI, 25 μg/ml of the peptide; for C. albicans inhibition (OD650): OD650 after an additional 18 hours; for C. albicans killing: 99% / C. albicans killing: 100%: 2 hours
Method: C. albicans yeast cells (ATCC64549) were incubated for 2 hours at pH 4.5 in BHI medium diluted to 1% of the original concentration containing 25 µg/ml of the peptide. Thereafter the fungal solutions were cultured on blood agar plates. OD650 was measured after incubation during an additional 18 hours. The fungicidal effect of the peptides on C. albicans was determined as the ability of the peptide to kill 100% and 99%, respectively, of the fungus, while the growth inhibitory effect was determined by measuring the OD650. An inhibitory effect existed when no increase in OD650 was recorded.

S. aureus [2] = experiment: killing of bacteria at fixed peptide concentration, S. aureus (Example 12); details: peptide 25 μg/ml
Method: as §1, §2

C. albicans = experiment: MMC99% of modified peptides, C. albicans (Example 25); details: BHI diluted 1/100, pH approximately 6.7-6.9 (Table 21)
Method: as §3
(§5) In this example the fungicidal, and bactericidal effects of the different peptides obtained in examples 18-21 were studied. C. albicans, E. coli and S. aureus, respectively, were incubated in BHI medium diluted 1/100, with a pH of approximately 6.7-6.9. The concentration of each peptide needed to kill 99% of the microorganisms (MMC99%) was determined.

E. coli = experiment: MMC99% of modified peptides, E. coli (Example 25); details: BHI diluted 1/100, pH approximately 6.7-6.9 (Table 21)
Method: as §3, §5

S. aureus [3] = experiment: MMC99% of modified peptides, S. aureus (Example 25); details: BHI diluted 1/100, pH approximately 6.7-6.9 (Table 21)
Method: as §3, §5

| Compound | MMC99% (C. albicans) | MMC99% (E. coli) | MMC99% (S. aureus [3]) | further results |
| --- | --- | --- | --- | --- |
| CSCC[C@@H]1NC(=O)[C@@H](NC(=O)[C@H](CCCNC(=N)N)NC(=O)[C@@H]2CC(=O)NCCCC[C@H](NC(=O)[C@H](CCCCN)NC(=O)[C@@H](NC(C)=O)[C@@H](C)O)C(=O)N[C@@H](Cc3ccccc3)C(=O)N[C@@H](CCC(N)=O)C(=O)N[C@@H](Cc3c[nH]c4ccccc34)C(=O)N2)CCCCNC(=O)C[C@@H](C(=O)N[C@@H](CCCNC(=N)N)C(N)=O)NC(=O)[C@H](CCCCN)NC(=O)[C@H](CCCNC(=N)N)NC1=O [Peptide 61] (Ac-TKKFQWDRKMRKDR-NH2; lactam 3-7, 9-13; N-terminus and C-terminus assumed) |  |  |  | killing of bacteria: S. epidermis (S. epidermis): + (+ = 99% of the bacteria are killed); killing of bacteria: E. faecalis (E. faecalis): + (+ = 99% of the bacteria are killed); MIC (C. albicans (ATCC64549)): 10 µg/mL (≈ 5.19 µM); MMC99% (C. albicans (ATCC64549)): 10 µg/mL; MMC99% (E. coli O6): 10 µg/mL; MIC (E. coli O6): 10 µg/mL (≈ 5.19 µM); killing of bacteria: P. aeruginosa (P. aeruginosa): + (+ = 99% of the bacteria are killed); killing of bacteria: K. pneumoniae (K. pneumoniae): + (+ = 99% of the bacteria are killed); C. albicans inhibition (OD650) [1]: +; C. albicans killing: 99% [1]: + (+ = 100/99% of the bacteria are killed); C. albicans killing: 100% [1]: − (− = less than 100/99% of the bacteria are killed); killing of bacteria: S. aureus (S. aureus [2]): + (+ = 99% of the bacteria are killed) |
| A-F-Q-W-Q-R-N-M-R-K-V-R (AFQWQRNMRKVR) [SEQ. ID. NO. 68] | 12 | >25 | 28 |  |
| Ac-ATKCFQWQRNMRKVR-NH2 (N-terminus and C-terminus assumed) [Peptide 63] |  |  |  | MIC (C. albicans (ATCC64549)): 10 µg/mL; MMC99% (C. albicans (ATCC64549)): 10 µg/mL; MMC99% (E. coli O6): 10 µg/mL; MIC (E. coli O6): 10 µg/mL |
| Ac-PEATKCFQWQRNMRKVR-NH2 (N-terminus and C-terminus assumed) [Peptide 67] |  |  |  | MIC (C. albicans (ATCC64549)): 10 µg/mL; MMC99% (C. albicans (ATCC64549)): 10 µg/mL; MMC99% (E. coli O6): 10 µg/mL; MIC (E. coli O6): 10 µg/mL |
| Ac-TKAFKWQRDMRKVR-NH2 (N-terminus and C-terminus assumed) [Peptide 53] |  |  |  | MIC (C. albicans (ATCC64549)): 10 µg/mL; MMC99% (C. albicans (ATCC64549)): 10 µg/mL; MMC99% (E. coli O6): 10 µg/mL; MIC (E. coli O6): 10 µg/mL |
| C-A-Q-W-Q-R-N-M-R-K-V-R (CAQWQRNMRKVR) [SEQ. ID. NO. 69] | 12 | 12 | 14 |  |
| C-F-A-W-Q-R-N-M-R-K-V-R (CFAWQRNMRKVR) [SEQ. ID. NO. 70] | 6 | 6 | 7 |  |
| C-F-Q-A-Q-R-N-M-R-K-V-R (CFQAQRNMRKVR) [SEQ. ID. NO. 71] | 12 | 25 | 14 |  |
| C-F-Q-L-Q-R-N-M-R-K-V-R (CFQLQRNMRKVR) [SEQ. ID. NO. 80] | 6 | 12 | 7 |  |
| C-F-Q-W-A-R-N-M-R-K-V-R (CFQWARNMRKVR) [SEQ. ID. NO. 72] | 12 | 12 | 7 |  |
| C-F-Q-W-E-R-N-M-R-K-V-R (CFQWERNMRKVR) [SEQ. ID. NO. 84] | 12 | 25 | 14 |  |
| C-F-Q-W-Q-A-N-M-R-K-V-R (CFQWQANMRKVR) [SEQ. ID. NO. 73] | 12 | 12 | 7 |  |
| C-F-Q-W-Q-E-N-M-R-K-V-R (CFQWQENMRKVR) [SEQ. ID. NO. 85] | >50 | >25 | >28 |  |
| C-F-Q-W-Q-K-N-M-R-K-V-R (CFQWQKNMRKVR) [SEQ. ID. NO. 81] | 6 | 6 | 7 |  |
| C-F-Q-W-Q-R-A-M-R-K-V-R (CFQWQRAMRKVR) [SEQ. ID. NO. 74] | 6 | 6 | 3.5 |  |
| C-F-Q-W-Q-R-E-M-R-K-V-R (CFQWQREMRKVR) [SEQ. ID. NO. 86] | 25 | 25 | 14 |  |
| C-F-Q-W-Q-R-N-A-R-K-V-R (CFQWQRNARKVR) [SEQ. ID. NO. 75] | 25 | 12 | 7 |  |
| C-F-Q-W-Q-R-N-L-R-K-V-R (CFQWQRNLRKVR) [SEQ. ID. NO. 82] | 6 | 12 | 7 |  |
| C-F-Q-W-Q-R-N-M-A-K-V-R (CFQWQRNMAKVR) [SEQ. ID. NO. 76] | 25 | 25 | 7 |  |
| C-F-Q-W-Q-R-N-M-K-K-V-R (CFQWQRNMKKVR) [SEQ. ID. NO. 83] | 6 | 6 | 7 |  |
| C-F-Q-W-Q-R-N-M-R-A-V-R (CFQWQRNMRAVR) [SEQ. ID. NO. 77] | 25 | 12 | 7 |  |
| C-F-Q-W-Q-R-N-M-R-K-A-R (CFQWQRNMRKAR) [SEQ. ID. NO. 78] | 25 | 12 | 7 |  |
| C-F-Q-W-Q-R-N-M-R-K-V-A (CFQWQRNMRKVA) [SEQ. ID. NO. 79] | 25 | 12 | 7 |  |
| C-F-Q-W-Q-R-Nle-M-R-K-V-R (CFQWQR[Nle]MRKVR) [SEQ. ID. NO. 90] | 12 | 12 | 3.5 |  |
| C-F-Q-W-Q-R-Orn-M-R-K-V-R (CFQWQR[Orn]MRKVR) [SEQ. ID. NO. 89] | 6 | 6 | 3.5 |  |
| Peptide 6: SEQ. ID. NO. 1 with X1 none, X2 none, X5 A, X7 K, X11 D, X17-25 none; 14 residues (Ac-TKAFKWQRDMRKVR) |  |  |  | killing of bacteria: S. epidermis (S. epidermis): + (+ = 99% of the bacteria are killed); killing of bacteria: E. faecalis (E. faecalis): + (+ = 99% of the bacteria are killed); killing of bacteria: P. aeruginosa (P. aeruginosa): + (+ = 99% of the bacteria are killed); killing of bacteria: K. pneumoniae (K. pneumoniae): + (+ = 99% of the bacteria are killed); C. albicans inhibition (OD650) [1]: −; C. albicans killing: 99% [1]: + (+ = 100/99% of the bacteria are killed); C. albicans killing: 100% [1]: − (− = less than 100/99% of the bacteria are killed); killing of bacteria: S. aureus (S. aureus [2]): + (+ = 99% of the bacteria are killed) |
| Peptide 62: third embodiment, comprises a cysteine; sequence only in sequence listing (ATKCFQWQRNMRKVR) |  |  |  | killing of bacteria: S. epidermis (S. epidermis): + (+ = 99% of the bacteria are killed); killing of bacteria: E. faecalis (E. faecalis): + (+ = 99% of the bacteria are killed); killing of bacteria: P. aeruginosa (P. aeruginosa): + (+ = 99% of the bacteria are killed); killing of bacteria: K. pneumoniae (K. pneumoniae): + (+ = 99% of the bacteria are killed); C. albicans inhibition (OD650) [1]: +; C. albicans killing: 99% [1]: + (+ = 100/99% of the bacteria are killed); C. albicans killing: 100% [1]: − (− = less than 100/99% of the bacteria are killed); killing of bacteria: S. aureus (S. aureus [2]): + (+ = 99% of the bacteria are killed) |
| Peptide 66: third embodiment, comprises a cysteine; sequence only in sequence listing (PEATKCFQWQRNMRKVR) |  |  |  | killing of bacteria: S. epidermis (S. epidermis): + (+ = 99% of the bacteria are killed); killing of bacteria: E. faecalis (E. faecalis): + (+ = 99% of the bacteria are killed); killing of bacteria: P. aeruginosa (P. aeruginosa): − (− = less than 99% of the bacteria are killed); killing of bacteria: K. pneumoniae (K. pneumoniae): − (− = less than 99% of the bacteria are killed); C. albicans inhibition (OD650) [1]: +; C. albicans killing: 99% [1]: + (+ = 100/99% of the bacteria are killed); C. albicans killing: 100% [1]: − (− = less than 100/99% of the bacteria are killed); killing of bacteria: S. aureus (S. aureus [2]): + (+ = 99% of the bacteria are killed) |

From patent US7803757B2, “Peptides based on the sequence of human lactoferrin and their use” (PharmaSurgics in Sweden AB, priority 1998, dated 2010)
